From patent US12281225B2, “Process for preparing stable polymers containing vinylimidazole” (BASF SE, priority 2018, dated 2025)

How the values were obtained:
[1] = Analysis of active substance: preservative concentration before and after storage in VI-containing polymer solution; format: physicochemical; settings: for active-substance concentration, 0 d, RT: before storage; for active-substance concentration, 14 d, 40° C.: storage 14 d at 40° C.; for active-substance concentration, 28 d, 40° C.: storage 28 d at 40° C.; for active-substance concentration, 60 d 40° C.: storage 60 d at 40° C.
Outline: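 Preservatives (MIT, BIT, CMIT, OIT, DCOIT, iodopropynyl butyl carbamate) in aqueous vinylpyrrolidone–vinylimidazole copolymer solution quantified after dilution by isocratic RP18 chromatography with UV detection, using an acid-methanol eluent.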

[2] = Iodine color number according to DIN 6162:2014-09; format: physicochemical
[3] = tested on: Bacteria: Escherichia coli, Staphylococcus aureus, Pseudomonas aeruginosa, Pseudomonas putida, Burkholderia cepacia, Alcaligenes faecalis; assay: Preservation test with periodic inoculation, bacteria assessment; format: cell-based; settings: for Start sample measurement, bact. assess., 4th inoculation: freshly formulated; for 60 d 40° C., bact. assess., 4th inoculation: sample stored 60 d at 40° C.
Outline: (§1)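 Semiquantitative growth scores (−− no growth to ++ strong growth) from weekly agar streaks incubated 3 days at 25 °C. Preserved polymer samples got four weekly 0.5 ml inoculations (titer 10^9 organisms/ml), the first two days after preservative addition; testing began fresh and after 60-day storage at 40 °C.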

[4] = tested on: Yeast: Candida albicans, Candida valida, Rhodotorula rura, Saccharomyces cerevisiae; assay: Preservation test with periodic inoculation, yeast assessment; format: cell-based; settings: sample stored 60 d at 40° C.
Outline: as §1

[5] = Polymer P5 (HP56) with stabilizer

## Cn1sccc1=O [MIT, methyl-4-isothiazolin-3-one]
[1]; in Polymer P1
  active-substance concentration, 0 d, RT: 250 ppm
  active-substance concentration, 14 d, 40° C.: 217 ppm
  active-substance concentration, 28 d, 40° C.: 156 ppm
  active-substance concentration, 60 d 40° C.: 131 ppm
[1]; in Polymer P2
  active-substance concentration, 0 d, RT: 250 ppm
  active-substance concentration, 14 d, 40° C.: 181 ppm
  active-substance concentration, 28 d, 40° C.: 139 ppm
  active-substance concentration, 60 d 40° C.: 116 ppm
[1]; in Polymer P3
  active-substance concentration, 0 d, RT: 250 ppm
  active-substance concentration, 14 d, 40° C.: 171 ppm
  active-substance concentration, 28 d, 40° C.: 140 ppm
  active-substance concentration, 60 d 40° C.: 122 ppm
[1]; in Polymer P4
  active-substance concentration, 0 d, RT: 250 ppm
  active-substance concentration, 14 d, 40° C.: 164 ppm
  active-substance concentration, 28 d, 40° C.: 136 ppm
  active-substance concentration, 60 d 40° C.: 113 ppm
[1]; in Polymer P5 (HP56)
  active-substance concentration, 0 d, RT: 250 ppm
  active-substance concentration, 14 d, 40° C.: 151 ppm
  active-substance concentration, 28 d, 40° C.: 119 ppm
  active-substance concentration, 60 d 40° C.: 94 ppm
[1]; in Polymer P6
  active-substance concentration, 0 d, RT: 250 ppm
  active-substance concentration, 14 d, 40° C.: 143 ppm
  active-substance concentration, 28 d, 40° C.: 117 ppm
  active-substance concentration, 60 d 40° C.: 87 ppm
[1]; in Polymer P7
  active-substance concentration, 0 d, RT: 250 ppm
  active-substance concentration, 14 d, 40° C.: 149 ppm
  active-substance concentration, 28 d, 40° C.: 123 ppm
  active-substance concentration, 60 d 40° C.: 91 ppm
[1]; in Polymer P8
  active-substance concentration, 0 d, RT: 250 ppm
  active-substance concentration, 14 d, 40° C.: 151 ppm
  active-substance concentration, 28 d, 40° C.: 119 ppm
  active-substance concentration, 60 d 40° C.: 94 ppm
[1]; in Polymer P9
  active-substance concentration, 0 d, RT: 250 ppm
  active-substance concentration, 14 d, 40° C.: 131 ppm
  active-substance concentration, 28 d, 40° C.: 98 ppm
  active-substance concentration, 60 d 40° C.: 80 ppm
[2]; Polymer P1 with stabilizer
  Iodine color number, 60 d 40° C.: 5.5
  Iodine color number, start: 2.5
[2]; Polymer P2 with stabilizer
  Iodine color number, 60 d 40° C.: 5.8
  Iodine color number, start: 2.7
[2]; Polymer P3 with stabilizer
  Iodine color number, 60 d 40° C.: 8.5
  Iodine color number, start: 3.4
[2]; Polymer P4 with stabilizer
  Iodine color number, 60 d 40° C.: 8.7
  Iodine color number, start: 3.4
[2]; [5]
  Iodine color number, 60 d 40° C.: 8.7
  Iodine color number, start: 3.6
[2]; Polymer P6 with stabilizer
  Iodine color number, 60 d 40° C.: 8.5
  Iodine color number, start: 3.6
[2]; Polymer P7 with stabilizer
  Iodine color number, 60 d 40° C.: 8.5
  Iodine color number, start: 3.6
[2]; Polymer P8 with stabilizer
  Iodine color number, 60 d 40° C.: 8.6
  Iodine color number, start: 3.5
[2]; Polymer P9 with stabilizer
  Iodine color number, 60 d 40° C.: 12.7
  Iodine color number, start: 3.9
[3]; Polymer P1
  Start sample measurement, bact. assess., 4th inoculation: − (slight growth, max. 100 colonies)
  60 d 40° C., bact. assess., 4th inoculation: +
[3]; Polymer P2
  Start sample measurement, bact. assess., 4th inoculation: − (slight growth, max. 100 colonies)
  60 d 40° C., bact. assess., 4th inoculation: +
[3]; Polymer P3
  Start sample measurement, bact. assess., 4th inoculation: − (slight growth, max. 100 colonies)
  60 d 40° C., bact. assess., 4th inoculation: +
[3]; Polymer P4
  60 d 40° C., bact. assess., 4th inoculation: +
[3]; Polymer P5 (HP56)
  60 d 40° C., bact. assess., 4th inoculation: +
[3]; Polymer P6
  60 d 40° C., bact. assess., 4th inoculation: +
[3]; Polymer P7
  60 d 40° C., bact. assess., 4th inoculation: +
[3]; Polymer P8
  Start sample measurement, bact. assess., 4th inoculation: − (slight growth, max. 100 colonies)
  60 d 40° C., bact. assess., 4th inoculation: +
[3]; Polymer P9
  60 d 40° C., bact. assess., 4th inoculation: +
[4]; Polymer P1
  60 d 40° C., yeast assess., 4th inoculation: 0 (moderate growth, max. 400 colonies)
[4]; Polymer P2
  60 d 40° C., yeast assess., 4th inoculation: +
[4]; Polymer P3
  60 d 40° C., yeast assess., 4th inoculation: ++
[4]; Polymer P4
  60 d 40° C., yeast assess., 4th inoculation: ++
[4]; Polymer P5 (HP56)
  60 d 40° C., yeast assess., 4th inoculation: ++
[4]; Polymer P6
  60 d 40° C., yeast assess., 4th inoculation: ++
[4]; Polymer P7
  60 d 40° C., yeast assess., 4th inoculation: ++
[4]; Polymer P8
  60 d 40° C., yeast assess., 4th inoculation: +
[4]; Polymer P9
  60 d 40° C., yeast assess., 4th inoculation: ++
